From PubChem BioAssay (NCI) come the findings set out here.

Molecules are shown by their SMILES. Values joined by “and” are separate entries in the source; they are usually repeats but may differ in a detail not shown here. Equal entries are not always repeated.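 Values below derive from 48-hour exposures of cells grown in 96-well plates, with endpoints linearly interpolated between the two concentrations bracketing the appropriate inhibition level. Here, GI50 denotes the concentration required for 50% inhibition of growth. TGI: concentration producing complete growth inhibition.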

Test systems include SF-295 CNS; K-562 leukemia; OVCAR-5 ovarian; SK-MEL-5 melanoma; OVCAR-4 ovarian; HOP-62 NSCLC; UO-31 renal; SK-MEL-28 melanoma; NCI/ADR-RES ovarian; MCF7 breast.
What all share (assay): NCI anticancer screen, dose series, 48 h

`Cn1cc(NC(=O)c2cc(NC(=O)CCCCCCCCCCC(=O)Nc3cc(C(=O)Nc4cc(C(=O)NCCC(=N)N)n(C)c4)n(C)c3)cn2C)cc1C(=O)NCCC(=N)N`: the TGI was > 100 µM in the assay with SF-295 CNS; > 100 µM with K-562 leukemia; > 100 µM in the assay on OVCAR-5 ovarian; 87.8 µM with SK-MEL-5 melanoma; > 100 µM in the assay with OVCAR-4 ovarian; 81.3 µM in the assay on HOP-62 NSCLC. In addition, the TGI with UO-31 renal was > 100 µM.
On to `Cc1ccc(-c2c(N)nc(NC#N)nc2CCC(=O)Nc2ccccc2[N+](=O)[O-])cc1`, for which the TGI in the assay with SF-295 CNS, in the assay with K-562 leukemia, in the assay on OVCAR-5 ovarian, in the assay on SK-MEL-5 melanoma, in the assay with SK-MEL-28 melanoma and with OVCAR-4 ovarian was > 100 µM throughout. Moreover, the TGI in the assay with HOP-62 NSCLC and in the assay with UO-31 renal was > 100 µM throughout.
As to `N#Cc1c(NC(=O)c2cccc(C(F)(F)F)c2)sc2c1CCC(=O)C2`, the GI50 in the assay on SF-295 CNS was 0.845 µM; in the assay on K-562 leukemia it was 0.217 µM; in the assay on OVCAR-5 ovarian, 1.14 µM; in the assay with SK-MEL-5 melanoma it was 1.3 µM; in the assay on SK-MEL-28 melanoma it was 0.526 µM; in the assay on OVCAR-4 ovarian, 0.298 µM. The figures for the GI50 with HOP-62 NSCLC, with UO-31 renal and in the assay with NCI/ADR-RES ovarian were 1.76 µM, 0.355 µM and 1.62 µM, respectively. For the same molecule, the TGI in the assay with SF-295 CNS was 3.88 µM; in the assay with OVCAR-5 ovarian, 3.97 µM; in the assay on SK-MEL-5 melanoma, 2.65 µM; with SK-MEL-28 melanoma, 1.92 µM; with OVCAR-4 ovarian it was 0.952 µM; in the assay with HOP-62 NSCLC, > 26.4 µM. Further, the values for the TGI in the assay with UO-31 renal and with NCI/ADR-RES ovarian were 1.38 µM and 7.77 µM, respectively.
On to `COc1cc2c(c3c1C=CCO3)C(=O)c1ccccc1C2=O`, for which the TGI was > 100 µM in the assay on SF-295 CNS; > 100 µM with K-562 leukemia; > 100 µM in the assay with OVCAR-5 ovarian; 78.6 µM with SK-MEL-5 melanoma; > 100 µM in the assay with SK-MEL-28 melanoma; > 100 µM in the assay on HOP-62 NSCLC. Besides, in the assay on UO-31 renal, the TGI is > 100 µM.
For `N#Cc1c(-c2cccs2)c2c(=S)[nH]c(=S)[nH]c2[nH]c1=S`, the GI50 was 46.5 µM in the assay with SF-295 CNS; 27.1 µM in the assay with K-562 leukemia; > 100 µM with OVCAR-5 ovarian; 17.2 µM with SK-MEL-5 melanoma; 22.4 µM with SK-MEL-28 melanoma; 53 µM with OVCAR-4 ovarian. For the same molecule, the GI50 with HOP-62 NSCLC was > 100 µM; with UO-31 renal, 40.6 µM; with NCI/ADR-RES ovarian, 62 µM. Further, the TGI is > 100 µM with SF-295 CNS; > 100 µM in the assay on K-562 leukemia; > 100 µM in the assay with OVCAR-5 ovarian; 33.9 µM with SK-MEL-5 melanoma; > 100 µM in the assay with SK-MEL-28 melanoma; > 100 µM in the assay on OVCAR-4 ovarian. Moreover, the TGI is > 100 µM in the assay on HOP-62 NSCLC, 92.6 µM in the assay on UO-31 renal and 99.3 µM with NCI/ADR-RES ovarian.
On to `CCCCCCCCCCCCC(=O)OC(c1cnco1)c1nc(C(O)CC(O)C(O)C(C)O)co1` (centres undefined), for which the GI50 is 1.52 µM in the assay on SF-295 CNS; 0.426 µM with K-562 leukemia; 1.45 µM with SK-MEL-5 melanoma; 0.686 µM in the assay with SK-MEL-28 melanoma; 2.02 µM with OVCAR-4 ovarian; 5.77 µM with UO-31 renal. Besides, the TGI with SF-295 CNS is 98.3 µM; in the assay with K-562 leukemia, > 100 µM; with OVCAR-5 ovarian it was > 100 µM; with SK-MEL-5 melanoma, 9.66 µM and 6.95 µM; in the assay on SK-MEL-28 melanoma, > 64.2 µM; with OVCAR-4 ovarian, 91.5 µM. The TGI with HOP-62 NSCLC and in the assay with UO-31 renal was > 100 µM each time.
On to `CCOC(=O)C1=C(C)Nc2ccccc2S1`, for which the TGI in the assay with SF-295 CNS, in the assay on K-562 leukemia, in the assay with OVCAR-5 ovarian, with SK-MEL-5 melanoma, with SK-MEL-28 melanoma and with OVCAR-4 ovarian was > 100 µM throughout. For the same molecule, the TGI in the assay on HOP-62 NSCLC and in the assay on UO-31 renal was > 100 µM in each case.
Take `CSc1nc(SC)c2c(CN=[N+]=[N-])c(Br)n(Cc3ccccc3)c2n1`: the TGI with SF-295 CNS, with OVCAR-5 ovarian, with SK-MEL-5 melanoma, with MCF7 breast, in the assay with SK-MEL-28 melanoma and in the assay on OVCAR-4 ovarian was > 100 µM each time. Also, the TGI in the assay on HOP-62 NSCLC, in the assay on UO-31 renal and in the assay on NCI/ADR-RES ovarian was > 100 µM throughout.
In the case of `CCC(C)C1NC(=O)c2nc(oc2-c2ccccc2)-c2csc(n2)-c2csc(n2)-c2nc(oc2C)-c2coc(n2)CNC(=O)C(C(C)CC)NC1=O` (centres undefined), the GI50 with SF-295 CNS is 0.0469 µM; in the assay on OVCAR-5 ovarian it was 0.0515 µM; in the assay with OVCAR-4 ovarian it was 0.0258 µM; in the assay with UO-31 renal, 0.0515 µM; with NCI/ADR-RES ovarian, 0.278 µM. Further, the TGI was 0.178 µM in the assay with SF-295 CNS; 0.189 µM with OVCAR-5 ovarian; 0.0982 µM in the assay on OVCAR-4 ovarian; 0.185 µM in the assay with UO-31 renal; 2.38 µM with NCI/ADR-RES ovarian.
As for `O=[N+]([O-])[C@@H]1C2C=CC(C2)[C@H]1Cl` (some centres undefined), the TGI in the assay on SF-295 CNS, with K-562 leukemia, in the assay on OVCAR-5 ovarian, in the assay with SK-MEL-5 melanoma, with SK-MEL-28 melanoma and in the assay with OVCAR-4 ovarian was > 100 µM in each case. Besides, the TGI with HOP-62 NSCLC and in the assay on UO-31 renal was > 100 µM in each case.
For the molecule `CSC1=NC=CCN1C`, the TGI in the assay with SF-295 CNS, in the assay with K-562 leukemia, in the assay on OVCAR-5 ovarian, with SK-MEL-5 melanoma, in the assay on SK-MEL-28 melanoma and in the assay with OVCAR-4 ovarian was > 100 µM each time. For the same molecule, the TGI in the assay with HOP-62 NSCLC and in the assay on UO-31 renal was > 100 µM in each case.
For the molecule `C=CCSC[C@H](NC(=O)COc1ccccc1)C(=O)NC(C(=O)OCc1ccc([N+](=O)[O-])cc1)=C(C)C`, the TGI with SF-295 CNS, in the assay on K-562 leukemia, in the assay on SK-MEL-5 melanoma, in the assay on SK-MEL-28 melanoma, in the assay on OVCAR-4 ovarian and with HOP-62 NSCLC was > 100 µM in each case. For the same molecule, the TGI in the assay with UO-31 renal is > 100 µM.
With `CCOc1ccc(NC(=O)CC2Sc3ccccc3NC2=O)cc1` (centres undefined), the TGI was > 100 µM in the assay with SF-295 CNS; > 100 µM in the assay with K-562 leukemia; > 100 µM in the assay with OVCAR-5 ovarian; > 100 µM in the assay on SK-MEL-5 melanoma; > 100 µM with SK-MEL-28 melanoma; 39.8 µM in the assay on OVCAR-4 ovarian. For the same molecule, the TGI in the assay with HOP-62 NSCLC and in the assay with UO-31 renal was > 100 µM in each case.
